# In ChEMBL document CHEMBL6087414, “Discovery of 4-(4-(3-(1-(2-(piperidin-1-yl)ethyl)-1H-benzo[d]imidazole-2-yl)isoxazol-5-yl)phenyl)morpholine as a novel c-Myc inhibitor against lung cancer in vitro and in vivo” (Eur J Med Chem, 2025):
# The source made the active and inactive calls. The calls are words filed in the database; no cut-off is given here.
# Legend:
# [1] = Toxicity in C57BL/6 mouse allografted with mouse Lewis lung carcinoma cells assessed as pathological damage in heart at 20 mg/kg, ip administered every two days for 28 days by H and E staining based analysis; assay type: organism-based; settings: in vivo, 672 h, time 28 day
# A549 [2] = assay: Induction of apoptosis in human A549 cells incubated for 48 hrs by Annexin V-FITC/PI staining based flow cytometry; assay type: functional, cell-based; settings: dose 5-15 µM
# A549 [3] = assay: Induction of apoptosis in human A549 cells assessed as early apoptotic cells at 10 uM incubated for 48 hrs by Annexin V-FITC/PI staining based flow cytometry (reference value: 5.02 %); assay type: functional
# [4] = molecular target: Myc proto-oncogene protein (Homo sapiens) (UniProt P01106); assay: Inhibition of c-Myc in human A549 cells assessed as decrease in half life at 10 uM pretreated for 12 hrs followed by CHX treatment for 1 to 2 hrs by Western blot analysis; assay type: cell-based; settings: time 13-14 hrs
# Sequence of Myc proto-oncogene protein (Homo sapiens) (P01106 whole entry): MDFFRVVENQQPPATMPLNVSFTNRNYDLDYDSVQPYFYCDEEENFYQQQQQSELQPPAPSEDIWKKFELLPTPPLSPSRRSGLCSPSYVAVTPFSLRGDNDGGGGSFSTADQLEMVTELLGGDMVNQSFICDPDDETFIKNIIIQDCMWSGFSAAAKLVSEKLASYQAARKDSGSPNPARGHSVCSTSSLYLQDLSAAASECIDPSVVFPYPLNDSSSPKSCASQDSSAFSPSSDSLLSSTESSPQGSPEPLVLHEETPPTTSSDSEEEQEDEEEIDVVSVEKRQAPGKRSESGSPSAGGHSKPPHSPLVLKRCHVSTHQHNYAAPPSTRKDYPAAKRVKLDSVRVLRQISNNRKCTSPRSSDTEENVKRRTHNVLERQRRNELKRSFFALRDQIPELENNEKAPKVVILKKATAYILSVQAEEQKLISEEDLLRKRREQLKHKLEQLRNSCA
# [5] = molecular target: Myc proto-oncogene protein (Homo sapiens) (UniProt P01106); assay: Inhibition of c-Myc in human A549 cells by Western blot analysis; assay type: cell-based; settings: dose <= 10.0 µM
# [6] = test system: Lewis lung carcinoma cell line; assay: Antitumor activity against mouse Lewis lung carcinoma cells allografted in C57BL/6 mouse assessed as inhibition of tumor growth administered intraperitoneally every two days for 28 days; assay type: functional, cell-based; settings: dose 20-40 mg/kg, route ip, time 28.0 day
# A549 [7] = assay: Induction of apoptosis in human A549 cells at 5 to 15 uM incubated for 48 hrs by Annexin V-FITC/PI staining based flow cytometry relative to control; assay type: functional; settings: dose 5-15 µM
# A549 [8] = assay: Induction of apoptosis in human A549 cells assessed as early apoptotic cells at 5 uM incubated for 48 hrs by Annexin V-FITC/PI staining based flow cytometry (reference value: 5.02 %); assay type: functional
# A549 [9] = assay: Induction of apoptosis in human A549 cells assessed as increase in BAX level at 2.5 to 10 uM incubated for 48 hrs by Western blot analysis; assay type: functional, cell-based; settings: dose 2.5-10 µM
# [10] = molecular target: c-Myc/c-Max (Homo sapiens) (UniProt P01106+P61244); assay: Disruption of c-Myc-Max interaction in human A549 cells assessed as decrease in at 10 uM incubated for 48 hrs by immunoprecipitation method; assay type: cell-based
# Sequence of c-Myc/c-Max (Homo sapiens) (P01106 whole entry): as above
# Sequence of c-Myc/c-Max (Homo sapiens) (P61244 2-160 partner limits assumed): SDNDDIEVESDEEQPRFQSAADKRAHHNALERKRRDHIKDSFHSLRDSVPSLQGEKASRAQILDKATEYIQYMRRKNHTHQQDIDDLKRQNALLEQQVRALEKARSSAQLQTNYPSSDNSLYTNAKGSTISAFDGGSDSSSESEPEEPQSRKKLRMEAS
# A549 [11] = assay: Induction of apoptosis in human A549 cells assessed as viable cells at 2.5 uM incubated for 48 hrs by Annexin V-FITC/PI staining based flow cytometry (reference value: 87.8 %); assay type: functional; settings: read-out: Activity
# [12] = Toxicity in C57BL/6 mouse allografted with mouse Lewis lung carcinoma cells assessed as pathological damage in kidneys at 20 mg/kg, ip administered every two days for 28 days by H and E staining based analysis; assay type: organism-based, Kidney; settings: in vivo, 672 h, time 28 day
# Lewis lung carcinoma = assay: In vivo inhibition of c-Myc in mouse Lewis lung carcinoma cells allografted in C57BL/6 mouse at 20 to 40 mg/kg, ip administered every two days for 28 days by Western blot analysis; assay type: functional, organism-based; settings: dose 20-40 mg/kg, time 28.0 day
# A549 [13] = assay: Effect on c-Myc mRNA expression in human A549 cells at 10 uM by Q-PCR analysis; assay type: functional, cell-based
# A549 [14] = assay: Induction of apoptosis in human A549 cells assessed as necrotic cells at 2.5 uM incubated for 48 hrs by Annexin V-FITC/PI staining based flow cytometry (reference value: 1.41 %); assay type: functional
# A549 [15] = assay: Induction of apoptosis in human A549 cells assessed as late apoptotic cells at 5 uM incubated for 48 hrs by Annexin V-FITC/PI staining based flow cytometry (reference value: 5.79 %); assay type: functional
# [16] = molecular target: Myc proto-oncogene protein (Homo sapiens) (UniProt P01106); assay: Inhibition of c-Myc in human A549 cells at 10 uM incubated for 24 hrs in presence of MG132 by Western blot analysis; assay type: cell-based
# A549 [17] = assay: Induction of apoptosis in human A549 cells assessed as viable cells at 10 uM incubated for 48 hrs by Annexin V-FITC/PI staining based flow cytometry (reference value: 87.8 %); assay type: functional; settings: read-out: Activity
# NCI-H1299 = assay: Cytotoxicity against human NCI-H1299 cells assessed as inhibition of cell viability incubated for 48 hrs by CCK8 assay; assay type: functional, cell-based; settings: NCI-H1299, 48 h
# [18] = Toxicity in C57BL/6 mouse allografted with mouse Lewis lung carcinoma cells assessed as pathological damage in liver at 20 mg/kg, ip administered every two days for 28 days by H and E staining based analysis; assay type: organism-based; settings: in vivo, 672 h, time 28 day
# A549 [19] = assay: Induction of apoptosis in human A549 cells assessed as late apoptotic cells at 2.5 uM incubated for 48 hrs by Annexin V-FITC/PI staining based flow cytometry (reference value: 5.79 %); assay type: functional
# A549 [20] = assay: Induction of apoptosis in human A549 cells assessed as late apoptotic cells at 10 uM incubated for 48 hrs by Annexin V-FITC/PI staining based flow cytometry (reference value: 5.79 %); assay type: functional
# [21] = molecular target: Myc proto-oncogene protein (Homo sapiens) (UniProt P01106); assay: Inhibition of c-Myc in human NCI-H1299 cells by Western blot analysis; assay type: cell-based; settings: dose <= 10.0 µM
# [22] = test system: Lewis lung carcinoma cell line; assay: Antitumor activity against mouse Lewis lung carcinoma cells allografted in C57BL/6 mouse at 40 mg/kg, ip administered every two days for 28 days relative to control; assay type: functional; settings: 672 h, time 28 day, read-out: TGI
# A549 [23] = assay: Induction of apoptosis in human A549 cells assessed as activation of caspase-3 cleavage at 2.5 to 10 uM incubated for 48 hrs by Western blot analysis; assay type: functional, cell-based; settings: dose 2.5-10 µM
# A549 [24] = assay: Induction of apoptosis in human A549 cells assessed as necrotic cells at 10 uM incubated for 48 hrs by Annexin V-FITC/PI staining based flow cytometry (reference value: 1.41 %); assay type: functional
# A549 [25] = assay: Induction of apoptosis in human A549 cells assessed as decrease in Bcl-2 level at 2.5 to 10 uM incubated for 48 hrs by Western blot analysis; assay type: functional, cell-based; settings: dose 2.5-10 µM
# A549 [26] = assay: Induction of apoptosis in human A549 cells assessed as early apoptotic cells at 2.5 uM incubated for 48 hrs by Annexin V-FITC/PI staining based flow cytometry (reference value: 5.02 %); assay type: functional
# A549 [27] = assay: Induction of apoptosis in human A549 cells assessed as increase in BAD level at 2.5 to 10 uM incubated for 48 hrs by Western blot analysis; assay type: functional, cell-based; settings: dose 2.5-10 µM
# [28] = test system: Lewis lung carcinoma cell line; assay: Antitumor activity against mouse Lewis lung carcinoma cells allografted in C57BL/6 mouse at 20 mg/kg, ip administered every two days for 28 days relative to control; assay type: functional; settings: 672 h, time 28 day, read-out: TGI
# A549 [29] = assay: Induction of apoptosis in human A549 cells assessed as necrotic cells at 5 uM incubated for 48 hrs by Annexin V-FITC/PI staining based flow cytometry (reference value: 1.41 %); assay type: functional
# A549 [30] = assay: Cytotoxicity against human A549 cells assessed as inhibition of cell viability incubated for 48 hrs by CCK8 assay; assay type: functional, cell-based; settings: A549, 48 h
# A549 [31] = assay: Induction of apoptosis in human A549 cells assessed as activation of caspase-9 cleavage at 2.5 to 10 uM incubated for 48 hrs by Western blot analysis; assay type: functional, cell-based; settings: dose 2.5-10 µM
# [32] = molecular target: Myc proto-oncogene protein (Homo sapiens) (UniProt P01106); assay: Inhibition of c-Myc transcriptional activity (unknown origin) at 10 uM by luciferase reporter gene assay
# [33] = Toxicity in C57BL/6 mouse allografted with mouse Lewis lung carcinoma cells assessed as pathological damage in spleen at 20 mg/kg, ip administered every two days for 28 days by H and E staining based analysis; assay type: organism-based; settings: in vivo, 672 h, time 28 day
# [34] = Toxicity in C57BL/6 mouse allografted with mouse Lewis lung carcinoma cells assessed as discernible signs of toxicity at 20 to 40 mg/kg, ip administered every two days for 28 days; assay type: organism-based; settings: in vivo, 672 h, dose 20-40 mg/kg, time 28 day
# A549 [35] = assay: Induction of apoptosis in human A549 cells assessed as viable cells at 5 uM incubated for 48 hrs by Annexin V-FITC/PI staining based flow cytometry (reference value: 87.8 %); assay type: functional; settings: read-out: Activity
# [36] = Cytotoxicity against human BEAS-2B cells assessed as cell viability upto 20 uM incubated for 48 hrs by CCK8 assay relative to control; assay type: toxicity, cell-based; settings: read-out: Activity
# [37] = Toxicity in C57BL/6 mouse allografted with mouse Lewis lung carcinoma cells assessed as body weight loss at 20 to 40 mg/kg, ip administered every two days for 28 days; assay type: organism-based; settings: in vivo, 672 h, dose 20-40 mg/kg, time 28 day
compound,measurement,setting,value
c1ccc2c(c1)nc(-c1cc(-c3ccc(N4CCOCC4)cc3)on1)n2CCN1CCCCC1,Activity,[1],Non-toxic
same,Activity,A549 [2],Dose-dependent-effect
same,Activity,A549 [3],37.8%
same,inhibition,[4],Active
same,inhibition,[5],Dose-dependent-effect
same,inhibition,[6],Active
same,Activity,A549 [7],27%
same,Activity,A549 [8],9.5%
same,Activity,A549 [9],Active
same,Activity,[10],Active
same,viability at 2.5 µM,A549 [11],70.1%
same,Activity,[12],Non-toxic
same,inhibition,Lewis lung carcinoma,Active
same,Activity,A549 [13],inactive
same,Activity,A549 [14],2.76%
same,Activity,A549 [15],19.6%
same,inhibition,[16],inactive
same,viability at 10 µM,A549 [17],26.1%
same,IC50,NCI-H1299,7.86 µM
same,Activity,[18],Non-toxic
same,Activity,A549 [19],18.7%
same,Activity,A549 [20],33%
same,inhibition,[21],Dose-dependent-effect
same,inhibition in vivo at 40 mg/kg,[22],76.4%
same,Activity,A549 [23],Active
same,Activity,A549 [24],3.05%
same,Activity,A549 [25],Active
same,Activity,A549 [26],8.46%
same,Activity,A549 [27],Active
same,inhibition in vivo at 20 mg/kg,[28],59.9%
same,Activity,A549 [29],2.63%
same,IC50,A549 [30],4.08 µM
same,Activity,A549 [31],Active
same,inhibition,[32],Active
same,Activity,[33],Non-toxic
same,Activity,[34],Non-toxic
same,viability at 5 µM,A549 [35],68.3%
same,"viability at 48 h, 20 µM",[36],> 90%
same,Activity,[37],Non-toxic
